According to patent US6525059B1, “Substituted pyrazoles as p38 kinase inhibitors” (G. D. Searle & Company, priority 1998, dated 2003):
Several values for one entry are separate records, joined by “and”; a condition that tells them apart may be missing. Equal entries are not always repeated. Where two headings read alike, the source gives them in different places.

Assays:
[1] = target: T1, human GST-p38 kinase alpha (Homo sapiens, UniProt Q16539); test: p38 kinase in vitro assay, second format, phosphorylation of EGFRP with 33P-ATP; format: biochemical; settings: read-out: p38α Kinase Assay IC50
T1 construct: The coding region of the human p38a cDNA was obtained by PCR-amplification from RNA isolated from the human monocyte cell line THP.1; made in house; host or cells: E. coli DH10B
T1 sequence (Q16539 whole entry): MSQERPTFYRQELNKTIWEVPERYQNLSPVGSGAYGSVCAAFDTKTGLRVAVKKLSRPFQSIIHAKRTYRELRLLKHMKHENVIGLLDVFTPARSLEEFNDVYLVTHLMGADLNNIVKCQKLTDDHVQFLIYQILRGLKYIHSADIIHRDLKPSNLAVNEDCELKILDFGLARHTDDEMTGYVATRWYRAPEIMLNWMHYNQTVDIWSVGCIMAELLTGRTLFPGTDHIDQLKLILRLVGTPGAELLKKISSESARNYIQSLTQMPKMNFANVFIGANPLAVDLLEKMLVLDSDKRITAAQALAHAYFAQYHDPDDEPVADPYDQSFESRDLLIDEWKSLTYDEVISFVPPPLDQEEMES
Procedure, shortened: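 Activated human GST-p38α (pre-activated with GST-MKK6, 1 h, 30 °C) phosphorylates EGFR 21-mer peptide (200 μM) with 50 μM ATP plus γ-33P-ATP, pH 7.5, 60 min at room temperature. Unreacted ATP removed by AG 1×8 resin; supernatant scintillation-counted.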

[2] = tested on: TNF-α; test: Rat assay: LPS-challenged rats, serum TNF-α by ELISA; format: in vivo; settings: Rattus norvegicus, po; for inhibition in vivo at 3 mg/kg: Table 8, dose 3.0 mg/kg
[3] = tested on: human TNF; test: TNF inhibition: human whole blood assay; format: cell-based; settings: Homo sapiens, LPS, read-out: TNF Inhibition-Human Whole Blood Assay
[4] = read-out: Rat LPS Assay % Inhibition
[5] = Table 10, dose 5.0 mg/kg, read-out: Rat LPS Assay % Inhibition

| SMILES | melting point | IC50 ([1]; Table 10, 10% DMSO, @ 1.0 hour) | IC50 ([3]; Table 10, human whole blood) | further results |
| --- | --- | --- | --- | --- |
| Clc1ccc(-c2n[nH]c(N3CCN(C4CC4)CC3)c2-c2ccncc2)cc1 [Example A-322, 1-[5-(4-chlorophenyl)-4-(4-pyridinyl)-1H-pyrazol-3-yl)-4-cyclopropylpiperazine] | 264 to 265 °C | – | – | IC50 ([1]; Table 8, 10% DMSO): 150 nM and 250 nM; inhibition in vivo at 3 mg/kg [2, 4]: 51.5%; IC50 ([3]; Table 8, human whole blood): 4200 nM |
| Fc1ccc(-c2[nH]ncc2-c2ccnc(Nc3ccccc3F)n2)cc1 [Example A-325, N-(2-fluorophenyl)-4-[3-(4-fluorophenyl)-1H-pyrazol-4-yl]-2-pyrimidinamine] | 239 to 240 °C | – | – | IC50 ([1]; Table 8, 10% DMSO): < 100 nM; inhibition in vivo at 3 mg/kg [2, 4]: 25%; inhibition in vivo at 30 mg/kg ([2]; Table 8, dose 30.0 mg/kg): 11%; IC50 ([3]; Table 8, human whole blood): 57 nM |
| COc1ccccc1Nc1nccc(-c2cn[nH]c2-c2ccc(F)cc2)n1 [Example A-326, 4-[3-(4-fluorophenyl)-1H-pyrazol-4-yl]-N-(2-methoxyphenyl)-2-pyrimidinamine] | 265 °C (dec.) | – | – | IC50 ([1]; Table 8, 10% DMSO): 970 nM; inhibition in vivo at 10 mg/kg ([2]; Table 8, dose 10.0 mg/kg): 0%; IC50 ([3]; Table 8, human whole blood): > 25000 nM |
| CN1CCN(c2n[nH]c(-c3cccc(Cl)c3)c2-c2ccncc2)CC1 [Example A-327, 1-[5-(3-chlorophenyl)-4-(4-pyridinyl)-1-H-pyrazol-3-yl]-4-methylpiperazine] | 229 to 231 °C | – | – | IC50 ([1]; Table 8, 10% DMSO): 150 nM; inhibition in vivo at 20 mg/kg ([2]; Table 8, dose 20.0 mg/kg): 83%; IC50 ([3]; Table 8, human whole blood): 180 nM |
| C#CCN1CCN(c2n[nH]c(-c3ccc(Cl)cc3)c2-c2ccncc2)CC1 [Example A-333, 1-[5-(4-chlorophenyl)-4-(4-pyridinyl)-1H-pyrazol-3-yl]-4-(2-propynyl)piperazine] | 247 °C (dec.) | – | – | IC50 ([1]; Table 8, 10% DMSO): 52 nM; inhibition in vivo at 5 mg/kg ([2]; Table 8, dose 5.0 mg/kg, read-out: Rat LPS Assay % Inhibition): 69%; IC50 ([3]; Table 8, human whole blood): 585 nM |
| O=C(C(=C1SCS1)c1ccncc1)c1ccc(Cl)cc1 [Example A-390] | 185.3 to 185.4 °C | 15100 nM | > 25000 nM | – |
| Cc1cc(C(=O)C(=C2SCS2)c2ccncc2)ccc1Cl [Example A-391, 1-(4-chloro-3-methylphenyl)-2-1,3-dithietan-2-ylidene-2-pyridin-4-yl-ethanone] | 164 to 165 °C | 4830 nM | > 25000 nM | inhibition in vivo at 20 mg/kg ([2]; Table 10, dose 20.0 mg/kg): 53% |
| CC(C)(C)c1ccc(C(=O)C(=C2SCS2)c2ccncc2)cc1 [Example A-398] | 172.1 to 173.1 °C | 45600 nM | > 25000 nM | – |
| Cc1ccc(C(=O)C(=C2SCS2)c2ccncc2)cc1 [Example A-400] | 209.1 to 215.1 °C | 4770 nM | > 25000 nM | – |
| C=Cc1ccc(C(=O)C(=C2SCS2)c2ccncc2)cc1 [Example A-403] | 176.6 to 176.7 °C | 4890 nM | > 25000 nM | – |
| CCc1ccc(C(=O)C(=C2SCS2)c2ccncc2)cc1 [Example A-404] | 174.8 to 175 °C | 4130 nM | > 25000 nM | – |
| Cc1cc(C(=O)C(=C2SCS2)c2ccncc2)ccc1Br [Example A-405] | 167.1 to 167.5 °C | 4850 nM | > 25000 nM | – |
| Cc1cc(-c2n[nH]c(N3CCN(C)CC3)c2-c2ccncc2)ccc1Cl [Example A-407, 1-[5-(3-methyl-4-chlorophenyl)-4-(4-pyridinyl)-1H-pyrazol-3-yl]-4-methylpiperazine] | 236.7 to 239.3 °C | 180 nM | 3860 nM | inhibition in vivo at 5 mg/kg [2, 5]: 21%; inhibition in vivo at 20 mg/kg ([2]; Table 10, dose 20.0 mg/kg): 82% |
| CN1CCN(c2n[nH]c(-c3ccc(C#N)cc3)c2-c2ccncc2)CC1 [Example A-412, 1-[5-(4-cyanophenyl)-4-(4-pyridinyl)-1H-pyrazol-3-yl]-4-methylpiperazine] | > 300 °C | 2150 nM | – | inhibition in vivo at 5 mg/kg [2, 5]: 0%; inhibition in vivo at 20 mg/kg ([2]; Table 10, dose 20.0 mg/kg): 0% |
| COc1ccc(-c2n[nH]c(N3CCN(C)CC3)c2-c2ccncc2)cc1 [Example A-415] | 259 to 260.2 °C | – | 510 nM | inhibition in vivo at 5 mg/kg [2, 5]: 17%; inhibition in vivo at 84 mg/kg ([2]; Table 10, dose […]): 84% |
| CCc1ccc(-c2[nH]nc(N3CCN(C)CC3)c2-c2ccncc2)cc1 [Example A-419, 1-[5-(4-ethylphenyl)-4-(4-pyridinyl)-1H-pyrazol-3-yl]-4-methylpiperazine] | 221.6 to 222.6 °C | 1310 nM | – | inhibition in vivo at 5 mg/kg [2, 5]: 24%; inhibition in vivo at 10 mg/kg ([2]; Table 10, dose 10.0 mg/kg): 58% |
| Cc1cc(-c2[nH]nc(N3CCN(C)CC3)c2-c2ccncc2)ccc1Br [Example A-420, 1-[5-(4-bromo-3-methylphenyl)-4-(4-pyrdinyl)-1H-pyrazol-3-yl]-4-methylpiperazine] | 294.7 °C (dec.) | 320 nM | – | inhibition in vivo at 5 mg/kg [2, 5]: 47%; inhibition in vivo at 20 mg/kg ([2]; Table 10, dose 20.0 mg/kg): 91% |
| CN1CCC(Sc2[nH]nc(-c3ccc(Cl)cc3)c2-c2ccncc2)CC1 [Example A-468, 3-(4-chlorophenyl)-5-[(1-methylpiperidin-4-yl)-thio]-4-pyridin-4-yl-1H-pyrazole] | 227.7 °C | 300 nM | – | inhibition in vivo at 1 mg/kg ([2]; Table 10, dose 1.0 mg/kg, read-out: Rat LPS Assay % Inhibition): 46%; inhibition in vivo at 5 mg/kg [2, 5]: 50%; inhibition in vivo at 20 mg/kg ([2]; Table 10, dose 20.0 mg/kg): 94% |
| Clc1ccc(-c2n[nH]c(SCCOC3CCCCO3)c2-c2ccncc2)cc1 (stereo not shown) [Example A-474] | 163.2 to 163.5 °C | – | 970 nM | inhibition in vivo at 20 mg/kg ([2]; Table 10, dose 20.0 mg/kg): 59% |

More lines, main results first:

| melting point | IC50 ([1]; Table 10, 10% DMSO, @ 1.0 hour) | IC50 ([3]; Table 10, human whole blood) | SMILES | further results |
| --- | --- | --- | --- | --- |
| 168.6 to 168.7 °C | 7240 nM | > 25000 nM | N#Cc1cccc(C(=O)C(=C2SCS2)c2ccncc2)c1 [Example A-406] | – |
| 243 to 246.8 °C | 41 nM | 5070 nM | Cc1ccc(-c2[nH]nc(N3CCN(C)CC3)c2-c2ccncc2)cc1 [Example A-416, 1-[5-(4-methylphenyl)-4-(4-pyridinyl)-1H-pyrazol-3-yl]-4-methylpiperazine] | – |
| > 300 °C | 400 nM | 680 nM | O=C1CN(Cc2ccccc2)CC(=O)N1c1[nH]nc(-c2ccc(Cl)cc2)c1-c1ccncc1 [Example A-428] | – |
| 262.9 °C | 2810 nM | 4610 nM | C[S+]([O-])c1[nH]nc(-c2ccc(F)cc2)c1-c1ccncc1 (stereo not shown) [Example A-436] | – |
| > 300 °C | 470 nM | 4890 nM | Clc1ccc(-c2n[nH]c(OC3CCOC3)c2-c2ccncc2)cc1 (stereo not shown) [Example A-443] | – |
| > 300 °C | 1080 nM | > 25000 nM | CC(C)(C)OC(=O)NCCOc1[nH]nc(-c2ccc(Cl)cc2)c1-c1ccncc1 [Example A-445] | – |
| 265.3 °C | 900 nM | 3380 nM | COc1[nH]nc(-c2ccc(Cl)cc2)c1-c1ccncc1 [Example A-446] | – |
| 202.1 to 205.4 °C | 78 nM | 15000 nM | Fc1ccc(-c2n[nH]c(SCC3OCCO3)c2-c2ccncc2)cc1 [Example A-451] | – |
| 214.7 to 215.8 °C | 2870 nM | 240 nM | COc1ccc(CSc2[nH]nc(-c3ccc(F)cc3)c2-c2ccncc2)cc1 [Example A-452] | – |
| 192.8 to 195.2 °C | 400 nM | > 25000 nM | COC(=O)CSc1[nH]nc(-c2ccc(Cl)cc2)c1-c1ccncc1 [Example A-457] | – |
| 220.9 to 221 °C | 8700 nM | > 25000 nM | CC(C)(C)OC(=O)N1CCC(Sc2[nH]nc(-c3ccc(Cl)cc3)c2-c2ccncc2)CC1 [Example A-458] | – |
| 284 to 288.4 °C | 1660 nM | > 25000 nM | CNC(=O)CSc1[nH]nc(-c2ccc(Cl)cc2)c1-c1ccncc1 [Example A-462] | – |
| 168.8 to 169.5 °C | 1660 nM | > 25000 nM | CN(C)CCCNC(=O)CSc1[nH]nc(-c2ccc(Cl)cc2)c1-c1ccncc1 [Example A-463] | – |
| 224.2 to 225.9 °C | – | > 25000 nM | O=C1OCCC1CSc1[nH]nc(-c2ccc(Cl)cc2)c1-c1ccncc1 (stereo not shown) [Example A-472] | – |
| 216.7 to 216.9 °C | 280 nM | 5110 nM | N#CCCCSc1[nH]nc(-c2ccc(Cl)cc2)c1-c1ccncc1 [Example A-475] | – |
| 212.7 to 213.2 °C | 180 nM | 490 nM | C#CCSc1[nH]nc(-c2ccc(Cl)cc2)c1-c1ccncc1 [Example A-478] | – |
| 207.3 to 208.1 °C | 72 nM | 2970 nM | C=CCSc1[nH]nc(-c2ccc(Cl)cc2)c1-c1ccncc1 [Example A-479] | – |
| 186.8 to 187.8 °C | – | 160 nM | NCCSc1[nH]nc(-c2ccc(Cl)cc2)c1-c1ccncc1 [Example A-480] | – |
| 211.9 to 213.2 °C | 200 nM | > 25000 nM | Clc1ccc(-c2n[nH]c(SCCc3c[nH]c4ccccc34)c2-c2ccncc2)cc1 [Example A-481] | – |
| 205.7 to 206.5 °C | 300 nM | 510 nM | N#CCCSc1[nH]nc(-c2ccc(Cl)cc2)c1-c1ccncc1 [Example A-483] | – |
